Data: ChEMBL document CHEMBL3045319, “Synthesis, antitumor activity, and structureactivity relationship of some 4H-pyrano[3,2-h]quinoline and 7H-pyrimido[4,5:6,5]pyrano[3,2-h]quinoline derivatives” (Med Chem Res, 2013)
≈ marks a conversion by molar mass, not a printed value.

Legend:
HepG2 [1] = assay: Cytotoxicity against Homo sapiens (human) HepG2 cells after 48 hr by MTT assay; assay type: functional, cell-based
HepG2 [2] = assay: Cytotoxicity against Homo sapiens (human) HepG2 cells assessed as cell viability at 12.5 ug/ml after 48 hr by MTT assay relative to control; assay type: functional; conditions: HepG2, 48 h, read-out: Activity
MCF7 [3] = assay: Cytotoxicity against Homo sapiens (human) MCF7 cells assessed as cell viability at 25 ug/ml after 48 hr by MTT assay relative to control; assay type: functional; conditions: MCF7, 48 h, read-out: Activity
MCF7 [4] = assay: Cytotoxicity against Homo sapiens (human) MCF7 cells after 48 hr by MTT assay; assay type: functional, cell-based; conditions: MCF7, 48 h
[5] = Cytotoxicity against Homo sapiens (human) HCT cells assessed as cell viability at 1.56 ug/ml after 48 hr by MTT assay relative to control; assay type: functional; conditions: read-out: Activity
[6] = Cytotoxicity against Homo sapiens (human) HCT cells assessed as cell viability at 3.125 ug/ml after 48 hr by MTT assay relative to control; assay type: functional; conditions: read-out: Activity
MCF7 [7] = assay: Cytotoxicity against Homo sapiens (human) MCF7 cells assessed as cell viability at 6.25 ug/ml after 48 hr by MTT assay relative to control; assay type: functional; conditions: MCF7, 48 h, read-out: Activity
HepG2 [8] = assay: Cytotoxicity against Homo sapiens (human) HepG2 cells assessed as cell viability at 25 ug/ml after 48 hr by MTT assay relative to control; assay type: functional; conditions: HepG2, 48 h, read-out: Activity
[9] = Cytotoxicity against Homo sapiens (human) HCT cells assessed as cell viability at 50 ug/ml after 48 hr by MTT assay relative to control; assay type: functional; conditions: read-out: Activity
HepG2 [10] = assay: Cytotoxicity against Homo sapiens (human) HepG2 cells assessed as cell viability at 6.25 ug/ml after 48 hr by MTT assay relative to control; assay type: functional; conditions: HepG2, 48 h, read-out: Activity
HepG2 [11] = assay: Cytotoxicity against Homo sapiens (human) HepG2 cells assessed as cell viability at 3.125 ug/ml after 48 hr by MTT assay relative to control; assay type: functional; conditions: HepG2, 48 h, read-out: Activity
[12] = Cytotoxicity against Homo sapiens (human) HCT cells assessed as cell viability at 12.5 ug/ml after 48 hr by MTT assay relative to control; assay type: functional; conditions: read-out: Activity
MCF7 [13] = assay: Cytotoxicity against Homo sapiens (human) MCF7 cells assessed as cell viability at 3.125 ug/ml after 48 hr by MTT assay relative to control; assay type: functional; conditions: MCF7, 48 h, read-out: Activity
MCF7 [14] = assay: Cytotoxicity against Homo sapiens (human) MCF7 cells assessed as cell viability at 12.5 ug/ml after 48 hr by MTT assay relative to control; assay type: functional; conditions: MCF7, 48 h, read-out: Activity
HepG2 [15] = assay: Cytotoxicity against Homo sapiens (human) HepG2 cells assessed as cell viability at 1.56 ug/ml after 48 hr by MTT assay relative to control; assay type: functional; conditions: HepG2, 48 h, read-out: Activity
[16] = Cytotoxicity against Homo sapiens (human) HCT cells after 48 hr by MTT assay; assay type: functional, cell-based
HepG2 [17] = assay: Cytotoxicity against Homo sapiens (human) HepG2 cells assessed as cell viability at 50 ug/ml after 48 hr by MTT assay relative to control; assay type: functional; conditions: HepG2, 48 h, read-out: Activity
[18] = Cytotoxicity against Homo sapiens (human) HCT cells assessed as cell viability at 25 ug/ml after 48 hr by MTT assay relative to control; assay type: functional; conditions: read-out: Activity
[19] = Cytotoxicity against Homo sapiens (human) HCT cells assessed as cell viability at 6.25 ug/ml after 48 hr by MTT assay relative to control; assay type: functional; conditions: read-out: Activity
MCF7 [20] = assay: Cytotoxicity against Homo sapiens (human) MCF7 cells assessed as cell viability at 1.56 ug/ml after 48 hr by MTT assay relative to control; assay type: functional; conditions: MCF7, 48 h, read-out: Activity
MCF7 [21] = assay: Cytotoxicity against Homo sapiens (human) MCF7 cells assessed as cell viability at 50 ug/ml after 48 hr by MTT assay relative to control; assay type: functional; conditions: MCF7, 48 h, read-out: Activity
[22] = Homo sapiens, HepG2, 48 h, read-out: IC50

Compound | viability at 12.5 µg/mL (HepG2 [2]) [%] | viability at 25 µg/mL (MCF7 [3]) [%] | IC50 (MCF7 [4]) [µg/mL] | viability at 1.56 µg/mL [5] [%] | viability at 3.125 µg/mL [6] [%] | viability at 6.25 µg/mL (MCF7 [7]) [%] | viability at 25 µg/mL (HepG2 [8]) [%] | viability at 50 µg/mL [9] [%] | viability at 6.25 µg/mL (HepG2 [10]) [%] | viability at 3.125 µg/mL (HepG2 [11]) [%] | viability at 12.5 µg/mL [12] [%] | viability at 3.125 µg/mL (MCF7 [13]) [%] | viability at 12.5 µg/mL (MCF7 [14]) [%] | viability at 1.56 µg/mL (HepG2 [15]) [%] | IC50 [16] [µg/mL] | viability at 50 µg/mL (HepG2 [17]) [%] | viability at 25 µg/mL [18] [%] | viability at 6.25 µg/mL [19] [%] | viability at 1.56 µg/mL (MCF7 [20]) [%] | viability at 50 µg/mL (MCF7 [21]) [%] | also measured
N#CC1=C(N)Oc2c(ccc3cccnc23)C1c1ccc(Cl)cc1 (centres undefined) | 63.5 | 49.8 | 24.9 (≈ 74.6 µM) | 100 | 92.6 | 82.5 | 57.2 | 27.4 | 68.2 | 68.5 | 67.4 | 91.6 | 72.9 | 79.6 | 24 (≈ 71.9 µM) | 52.8 | 48.2 | 76.8 | 100 | 26.8 | IC50 (HepG2 [1]; [22]): > 50 µg/mL
N#CC1=C(N)Oc2c(ccc3cccnc23)C1c1ccc(Br)cc1 (centres undefined) | 98.3 | 58.9 | 34.8 (≈ 92 µM) | 100 | 100 | 75.7 | 96.3 | 42.4 | 100 | 100 | 91.2 | 83.9 | 70 | 100 | 43.7 (≈ 116 µM) | 91.8 | 78.4 | 97.8 | 94.8 | 39.1 | IC50 (HepG2 [1]; hepg2): Not Active
Cc1ccc2ccc3c(c2n1)OC(N)=C(C#N)C3c1ccc(Cl)cc1 (centres undefined) | 35.6 | 58.2 | 27.9 (≈ 80.2 µM) | 94 | 79 | 78.2 | 33.7 | 27.6 | 37.6 | 43 | 55.6 | 87 | 71.4 | 51.9 | 15.8 (≈ 45.4 µM) | 23.1 | 35.8 | 66.8 | 100 | 28 | IC50 (HepG2 [1]; [22]): 1.8 µg/mL (≈ 5.18 µM)
Cc1ccc2ccc3c(c2n1)OC(N)=C(C#N)C3c1ccc(Br)cc1 (centres undefined) | 39.6 | 62.3 | 38.9 (≈ 99.2 µM) | 100 | 88 | 75.2 | 29.3 | 36.6 | 44.9 | 64 | 58.2 | 82.3 | 71.8 | 77.5 | 22.8 (≈ 58.1 µM) | 22 | 48.8 | 66.6 | 93.9 | 41.2 | IC50 (HepG2 [1]; [22]): 5.5 µg/mL (≈ 14 µM)
